Data on one compound can be found in patent US20250375450A1, “SMARCA2/4 INHIBITION AS A STRATEGY TO TREAT TUMORS THAT HARBOR ABERRANT BAF ASSEMBLIES” (BOARD OF REGENTS, THE UNIVERSITY OF TEXAS SYSTEM, priority 2022, published 2025).

Assay [1] concerns the target SMARCAL1 (Homo sapiens, UniProt Q9NZC9). Description: Activity of other SWI/SNF ATPases not part of the BAF complex. It is filed as biochemical. The following applies: SWI/SNF ATPase not part of the BAF complex.
For assay [2], the system named is alveolar Rhabdomyosarcoma cell lines. Description: Growth of Rhabdomyosarcoma cell lines, live cell imaging confluency. Type of assay: cell-based. How it is done: Briefly, human SMARCA2 was purified, and a high-throughput screen (HTS) of 40,000 compounds was conducted. […] In brief, cells were grown in RPMI media supplemented with 10% Fetal bovine serum (FBS), 1× penicillin, and streptomycin antibiotics. Cells were placed in an incubator with 5% C02 and 50% humidity. When cells reached 90% confluency, cells were harvested, washed twice in 1×PBS, counted using trypan blue exclusion method. Then cells were seeded in 96-well plates (duplicates, n=2) at the density of 20,000 cells per well. Allowed them to attach to the bottom of the well for 1 to 2 hrs and treated with different concentration of AT-301 compound starting at highest concentration of 10 micromolar to serial dilution of the compound to the lowest concentration of 0.039 micromolar. Cells treated with only DMSO were also included as negative control. Cells were monitored for 72 hrs. by live cell imaging method (Incucyte S3) taking images every two hours. The confluency was determined and plotted against time (hours) by using Prism software.
Assays were performed as detailed above for FIG. 4A-E.

For assay [3], the system named is ES7. In words: Cell proliferation assay and IC50 measurement (PrestoBlue). Particulars: Homo sapiens, PrestoBlue cell viability. Type of assay: cell-based. The procedure:
FIG. 10A-C show representative data illustrating that AT-301 kills Ewing's, RMS, GBM, AML, and other cancer cells. Cell lines were treated with serial dilutions (2×) of AT-301, and IC50 values of each cell line were determined using PrestoBlue dye for cell viability following manufacturer's protocol (Invitrogen, A13261). See also Table 3.
Jurkat, Molt-4, RH4, RH30, BT40, GBM2, ES3, ES6, ES7, HC827, H1975, H2030 cells: RPMI 1640, 10% FBS, Penicillin (100 units/mL) and streptomycin (100 μg/mL) in the presence of 5% CO2.
(§1) Proliferation of adherent cells was determined on the IncuCyte live-cell imaging system (Essen BioScience). Cells were seeded on clear bottom 96 well plates at a seeding density of 2000 cells/well. Cells were allowed to attach overnight after which the medium was replaced with fresh medium containing serial dilutions (2×) of the compound or DMSO control. Percent confluence was calculated by the IncuCyte software from four different images per well from at least three replicate wells. For non-adherent cells, the 96-well plates were coated with poly-L-lysine before seeding to facilitate cell adhesion. At the end of the assay, dose-dependent cell viability was determined by staining the cells with PrestoBlue (Invitrogen, A13261) as per manufacturer's instructions and IC50 was calculated (FIG. 10).

For assay [4], the system named is ovarian cancer cells. In words: Growth/killing of ovarian cancer cells. Type of assay: cell-based. Particulars: dose-dependent. How it is done: as §1
(§2) Referring to FIG. 10A, AT-301 kills a variety of cancer cells (brain tumors, rhabdomyosarcoma, nonsmall cell lung cancer, leukemia, and Ewing's Sarcoma. We also tested whether AT-301 can kill cells representing gynecological cancers (ovarian and endometrial cancer). As shown in FIG. 10B-C, AT-301 kills a variety of ovarian and endometrial cancer cells.

For assay [5], the system named is endometrial cancer cells. In words: Growth/killing of endometrial cancer cells. Type of assay: cell-based. The following applies: dose-dependent. How it is done: as §1, §2
Assay [6] concerns RH41 cells. In words: Cell cycle analysis, propidium iodide/RNase flow cytometry. Type of assay: cell-based. Particulars: 7.5 μM AT-301, 24 hours. The procedure: Referring to FIG. 11A and FIG. 11B, RH4 (FIG. 11A) and ES3 (FIG. 11B) cells were treated with the indicated concentrations of BAF-X-1 or DMSO in triplicate and apoptosis was detected using the IncuCyte Caspase 3/7 green dye (Sartorius). Brightfield and green fluorescence images were captured every 2 hours from 4 fields per well on the IncuCyte live cell imager. The proportion of caspase positive (green) cells relative to % confluence of the well was calculated on the IncuCyte software and plotted against time. Referring to FIG. 11C and FIG. 11D, RH41 cells were treated with 7.5 μM AT-301 (FIG. 11D) or DMSO (FIG. 11C) for 24 hours, harvested with accutase, washed, and fixed in 70% ethanol. They were subsequently stained with propidium iodide/RNase and fluorescence was analyzed on BD flow cytometer. Resulting data was analyzed using FlowJo software.
To test the alterations in cell cycle upon AT-301 treatment, RH41 cells were cultured in 12 well plates, detached using Accutase (Corning, 25-058-Cl), washed with PBS, and fixed in 70% ethanol. For staining, the fixed cells were washed with PBS and stained with FxCycle PI/RNase staining solution (Invitrogen, F10797) as per the supplier's directions. Fluorescence intensity of stained cells was measured on (BD system) and analyzed using FlowJo.
A general note: A flow cytometer gives signals particle by particle.

Assay [7] has as its system FLI1 expression in ES7 cells. In words: Immunoblot of oncogenic transcription factor levels. It is filed as cell-based. The following applies: 4 and 12 hrs of treatment. The text has this: (§3) FIG. 12A-D show representative data illustrating that the assembly of BAF complex is perturbed by AT-301 inhibitor without perturbing oncogenic fusion protein levels. Referring to FIG. 12A and FIG. 12B, immunoblots of RH41 (FIG. 12A) and ES7 (FIG. 12B) cells after 4 and 12 hrs of treatment with AT-301 or DMSO. FOXO1 and FLI1 expression remains unchanged upon AT-301 treatment. Referring to FIG. 12C and FIG. 12D, gel filtration chromatography of ES3 (FIG. 12C) and RH41 (FIG. 12D) cell nuclear lysates after BAF-X-1 treatment are shown. […]
(§4) Next, whether the levels of oncogenic transcription factors in RH41 and ES7 cells change upon treatment with AT-301 was tested. Harvested cells were lysed in NP-40 lysis buffer (Thermo Scientific, J60766) supplemented with protease and phosphatase inhibitor (Halt Protease and phosphatase inhibitor cocktail (Thermo Scientific). Total protein was quantified using Bradford assay (Biorad), and 20 μg of it was denatured and separated on pre-cast tris-acetate or tris-glycine gels (Invitrogen). The protein was then transferred to nitrocellulose membranes (Cytiva) and subsequently probed using primary and secondary antibodies. The signal was detected using Clarity and Clarity Max ECL substrates (Biorad) and imaged on Biorad ChemiDoc).
Background: Immunoblotting shows a protein as a band on a membrane.

The subject of assay [8] is FOXO1 expression in RH41 cells. The description is as above. Type of assay: cell-based. Particulars: 4 and 12 hrs of treatment.
Text: as §3, §4

Assay [9] relates to BAF complex in ES3 cells. In words: BAF complex assembly, size-exclusion chromatography of nuclear lysates and immunoblot. It is filed as cell-based. The following applies: 7.5 μM AT-301. The text has this:
(§5) FIG. 12A-D show representative data illustrating that the assembly of BAF complex is perturbed by AT-301 inhibitor without perturbing oncogenic fusion protein levels. Referring to FIG. 12A and FIG. 12B, immunoblots of RH41 (FIG. 12A) and ES7 (FIG. 12B) cells after 4 and 12 hrs of treatment with AT-301 or DMSO. FOXO1 and FLI1 expression remains unchanged upon AT-301 treatment. Referring to FIG. 12C and FIG. 12D, gel filtration chromatography of ES3 (FIG. 12C) and RH41 (FIG. 12D) cell nuclear lysates after BAF-X-1 treatment are shown. Lysates were passed through a Sephacryl S-400 HR column and every fourth fraction was immuno-blotted for the proteins indicated with fraction numbers above the lanes.
(§6) Next, whether AT-301 can perturb the assembly of BAF complex was evaluated using size-exclusion chromatography (SEC) method. Cells were cultured on 15 cm petri-dishes. Nuclei were extracted and lysed. A HiPrep 16/60 Sephacryl S-400 HR column (GE) was equilibrated with a running buffer and 4 mg of the lysate was loaded on to the column. Fractions of 1 mL were eluted at an elution rate of 0.8 mL/min. Eluted proteins were analyzed by concentrating and immunoblotting every fourth fraction.
(In gel filtration, larger molecules generally elute earlier.)

The test system of assay [10] is BAF complex in RH4 cells. Described as above. Type of assay: cell-based. The following applies: 7.5 μM AT-301.
Text: as §5, §6

Structures are written as SMILES. Entries after “also recorded” stand apart in the source; their conditions may differ.

SMARCAL1, sequence (Q9NZC9 whole entry): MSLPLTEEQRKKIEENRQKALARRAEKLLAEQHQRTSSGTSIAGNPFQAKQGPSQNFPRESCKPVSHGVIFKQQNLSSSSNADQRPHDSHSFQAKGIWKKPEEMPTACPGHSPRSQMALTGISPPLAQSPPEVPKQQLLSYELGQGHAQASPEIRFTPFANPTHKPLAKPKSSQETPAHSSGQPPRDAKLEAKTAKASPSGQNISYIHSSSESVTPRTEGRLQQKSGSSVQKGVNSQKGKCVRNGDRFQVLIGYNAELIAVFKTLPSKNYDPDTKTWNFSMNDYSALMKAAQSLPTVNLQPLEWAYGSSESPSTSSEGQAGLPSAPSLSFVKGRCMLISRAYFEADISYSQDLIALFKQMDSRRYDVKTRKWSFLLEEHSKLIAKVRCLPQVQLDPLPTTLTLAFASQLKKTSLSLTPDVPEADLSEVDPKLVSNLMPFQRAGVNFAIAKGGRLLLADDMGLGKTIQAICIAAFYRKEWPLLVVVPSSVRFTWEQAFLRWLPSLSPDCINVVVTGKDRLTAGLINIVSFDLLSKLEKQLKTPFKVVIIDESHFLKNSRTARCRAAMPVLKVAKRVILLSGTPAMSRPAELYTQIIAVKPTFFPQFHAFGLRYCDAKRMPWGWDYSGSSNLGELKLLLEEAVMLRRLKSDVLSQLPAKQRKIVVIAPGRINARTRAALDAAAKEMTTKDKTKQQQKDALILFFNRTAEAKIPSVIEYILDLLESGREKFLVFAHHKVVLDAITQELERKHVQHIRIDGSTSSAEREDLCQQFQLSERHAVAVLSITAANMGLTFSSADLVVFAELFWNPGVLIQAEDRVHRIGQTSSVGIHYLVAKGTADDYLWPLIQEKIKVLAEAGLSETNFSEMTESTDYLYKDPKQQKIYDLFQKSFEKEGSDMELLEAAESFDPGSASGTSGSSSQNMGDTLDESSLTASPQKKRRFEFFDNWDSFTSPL

For the compound `Clc1ccc(CNc2nc(NC3CCCC3)nc3ccccc23)cc1Cl` [AT-301, N^2-cyclopentyl-N^4-(3,4-dichlorobenzyl)quinazoline-2,4-diamine], the “Inhibition of activity of SMARCAL1” value in assay [1] is “fails to inhibit”. Also, in assay [2] (2 other lines), the “Growth of Rhabdomyosarcoma cell lines” value is recorded as “moderately attenuated the growth”. In addition, the “Growth of alveolar Rhabdomyosarcoma cell lines” value in assay [2] (4 alveolar Rhabdomyosarcoma cell lines) is on record as “attenuate the growth; also recorded: strongly attenuated the growth”. Also, the midpoint of inhibition in assay [3], the IC50, lay at 4.83 µM. In assay [4], the “Growth/killing of ovarian cancer cells” value is given as “kills; also recorded: inhibits the growth”. Also, the “Growth/killing of endometrial cancer cells” value in assay [5] was “kills; also recorded: inhibits the growth”. The Cell cycle alteration result in assay [6] is given as “arrested in GO-Gi phase”. For the same compound, the “Expression of oncogenic transcription factor (FLI1)” value in assay [7] is reported as “does not alter the expression”. In addition, the “Expression of oncogenic transcription factor (FOXO1)” value in assay [8] was “does not alter the expression”. For the same compound, the “Assembly of BAF complexes” value in assay [9] and in assay [10] was “perturbed assembly” each time.
